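Protocol summary: plate cells (96-well), add compound at 5 concentrations, incubate 48 h, interpolate endpoints linearly. At the GI50, growth is halved. TGI: concentration producing complete growth inhibition.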 Bounds are passed on as bounds.

The values that follow come from PubChem BioAssay (NCI).

Test systems include HCT-15 colon; SNB-19 CNS; COLO 205 colon; NCI-H460 lung; LOX IMVI melanoma; PC-3 prostate; HL-60(TB) leukemia; MALME-3M melanoma; U251 CNS; HS 578T breast.
What all share (test): NCI-60 cell line screen, 48 h

For `O=C1C=CC(=O)c2cc3cc(CBr)ccc3cc21`, the GI50 with HCT-15 colon was 5.95 µM; in the test with SNB-19 CNS, 18.1 µM; in the test on COLO 205 colon, 4.19 µM; in the test on NCI-H460 lung, 22 µM; in the test on LOX IMVI melanoma, 1.44 µM; in the test with PC-3 prostate it was 3.85 µM. The GI50 was 3.1 µM in the test with MALME-3M melanoma, 14.4 µM in the test with U251 CNS and 28.7 µM in the test with HS 578T breast. Also, the TGI in the test on HCT-15 colon was 17.3 µM; in the test on SNB-19 CNS, greater than 55 µM; in the test with COLO 205 colon, 28.7 µM; in the test on NCI-H460 lung it was greater than 80.3 µM; with LOX IMVI melanoma, 3.02 µM; with PC-3 prostate it was 8.9 µM. Besides, the TGI in the test with HL-60(TB) leukemia is 0.2 µM; in the test with MALME-3M melanoma it was 29.3 µM; with U251 CNS, 36.2 µM; with HS 578T breast, greater than 93.2 µM.

For `O=C(c1ccccc1Br)C(F)(F)F`, the TGI in the test with HCT-15 colon, in the test with SNB-19 CNS, with COLO 205 colon, in the test with NCI-H460 lung, with LOX IMVI melanoma and in the test with PC-3 prostate was greater than 100 µM in each case. Moreover, the TGI with HL-60(TB) leukemia, in the test with MALME-3M melanoma, in the test on U251 CNS and with HS 578T breast was greater than 100 µM in each case.

Take `COc1cc2c3c(n(C)c(=O)c2cc1OC)-c1cc2c(cc1/C3=C\CN)OCO2`: the GI50 with HCT-15 colon is 0.778 µM; in the test on SNB-19 CNS it was less than 0.0405 µM; in the test with COLO 205 colon, 0.156 µM; in the test on NCI-H460 lung it was 0.0879 µM; with LOX IMVI melanoma, 0.133 µM; in the test on PC-3 prostate, 7.03 µM. In addition, the GI50 in the test with HL-60(TB) leukemia was 0.294 µM; with MALME-3M melanoma, 2.17 µM; in the test on U251 CNS it was 0.0395 µM; with HS 578T breast it was 34.9 µM. Moreover, the TGI with HCT-15 colon is 19.8 µM; with NCI-H460 lung it was greater than 24.1 µM; in the test with LOX IMVI melanoma it was 1.46 µM; in the test with PC-3 prostate it was greater than 100 µM; in the test with HL-60(TB) leukemia, greater than 100 µM; with MALME-3M melanoma, greater than 40.4 µM. Also, the TGI in the test on U251 CNS is 3.31 µM; with HS 578T breast, greater than 100 µM.

Take `COc1c(OC[C@H](O)CN2CCOCC2)ccc2c3n(c(=NC(=O)c4cccnc4C)nc12)CCN3`: the GI50 in the test with HCT-15 colon is 1.62 µM; in the test with SNB-19 CNS it was 5.1 µM; in the test on COLO 205 colon, 0.918 µM; in the test on NCI-H460 lung, 0.528 µM; with LOX IMVI melanoma it was 1.57 µM; in the test with PC-3 prostate, 0.326 µM. In addition, the GI50 in the test on HL-60(TB) leukemia was 0.0538 µM; in the test on MALME-3M melanoma, 0.982 µM; in the test on U251 CNS it was 2.58 µM; with HS 578T breast, 0.15 µM. For the same compound, the TGI in the test with HCT-15 colon, with SNB-19 CNS, with COLO 205 colon, in the test on NCI-H460 lung, in the test on LOX IMVI melanoma and with PC-3 prostate was greater than 50 µM in each case. Also, the TGI in the test on HL-60(TB) leukemia, in the test with MALME-3M melanoma, with U251 CNS and in the test on HS 578T breast was greater than 50 µM each time.

`[Cl][Hg][c]1cc[c]([Hg][Cl])o1`: the GI50 with HCT-15 colon is 2.05 µM; in the test with SNB-19 CNS, 3.44 µM; with COLO 205 colon, 1.65 µM; in the test with NCI-H460 lung, 10 µM; in the test with LOX IMVI melanoma, 0.707 µM; in the test with PC-3 prostate, 6.83 µM. The GI50 with HL-60(TB) leukemia was 2.39 µM; with MALME-3M melanoma it was 1.68 µM; in the test with U251 CNS, 0.737 µM; in the test with HS 578T breast, 3.71 µM. Moreover, the TGI with HCT-15 colon was 6.06 µM; with SNB-19 CNS, 15.8 µM; in the test with COLO 205 colon, 3.26 µM; in the test with NCI-H460 lung, 34.1 µM; in the test with LOX IMVI melanoma, 4.27 µM; with PC-3 prostate, 28.5 µM. Moreover, the TGI was 7.03 µM in the test with HL-60(TB) leukemia, 3.37 µM in the test on MALME-3M melanoma, 2.46 µM with U251 CNS and greater than 100 µM with HS 578T breast.

For `Oc1cccnc1[Se]`, the TGI was greater than 100 µM in the test on HCT-15 colon; greater than 100 µM with SNB-19 CNS; 35 µM in the test on COLO 205 colon; greater than 100 µM in the test on NCI-H460 lung; greater than 100 µM in the test on LOX IMVI melanoma; greater than 100 µM in the test with PC-3 prostate. Besides, the TGI in the test on HL-60(TB) leukemia, in the test on MALME-3M melanoma, with U251 CNS and with HS 578T breast was greater than 100 µM each time.
